Results reported in US6521222B1, “Inorganic/organic complexes for reducing skin irritation” (Societe L'Oreal S.A., priority 1999, dated 2003).

Tests used:
[1] = Cytotoxicity (MTT test) on Episkin reconstructed skin after applying compositions; assay type: cell-based, human; settings: human; composition A + 0.5% (w/V) 5-n-octanoylsalicylic acid, no compound of formula (I); 150 mg/cm^2, 18 hours, 37° C./5% CO2; read-out: % of cell viability
Description: (§1) The Episkin system is a model of human epidermis reconstituted in vitro, which was manufactured by the company Episkin. The epidermis contained only one cell type: keratinocytes. The keratinocytes were seeded onto a dermis equivalent which was composed of various types of collagen.
(§2) After a period of proliferation of the keratinocytes immersed in the culture medium, the system was raised up to the air/liquid interface.
(§3) The assignee hereof has studied the cytotoxicity of the keratinocytes (3-(4,5-dimethylthiazol-2-yl)-2,5-diphenyltetrazolium bromide test) after applying to this reconstructed skin model various compositions in a proportion of 150 mg/cm^2, and maintaining same in an incubator at 37° C./5% CO2 for a period of 18 hours. Each composition was tested on two epidermides of 1.13 cm^2.
(§4) The basic composition A was:
(§5) The other compositions tested corresponded to this composition A to which 5-n-octanoylsalicylic acid, alone or in admixture with a compound of formula (I) according to the invention, was added.
(§6) The measurement of cell viability was carried out immediately after rinsing of the compositions with phosphate buffered saline (PBS).

[2] = test system: keratinocytes of Episkin human epidermis reconstituted in vitro; assay: as above; assay type: cell-based; settings: 0.3% (w/V) 5-n-octanoylsalicylic acid added to composition A
Description: as §1, §2, §3, §4, §5, §6

In the case of `CCCCCCCC(=O)c1ccc(O)c(C(=O)O)c1` [5-n-octanoylsalicylic acid], the viability at 18 h, 0.5 % (w/V) [1] is reported as 7.8% and the “cytotoxicity of the composition” value [2] is reported as “cytotoxic”.
